Data reported in US20250213512A1, “TRANSDERMAL ANALGESIC FORMULATION” (MEAT & LIVESTOCK AUSTRALIA LTD, priority 2017, published 2025).
Values joined by “and” are separate entries in the source; they are usually repeats but may differ in a detail not shown here. Equal entries are not always repeated.

Experiments:
[1] = Screening of NSAID and vehicle combinations: penetration through cattle skin in vitro (Table 13)
Experimental: Hair was removed using an electric clipper and the subcutaneous fat and musculature carefully trimmed away before the skin was cut into circular sections (approximately 2 cm diameter) using a metal wad punch, and placed in airtight ziplock bags, stored at −20° C. within 5 hr of slaughter.
The skin samples were defrosted immediately prior to use and mounted on Franz diffusion cells. […] A glass cover slip was applied to each donor chamber to prevent evaporation of the donor solution. Samples (200 μL) were collected at regular intervals from the receptor chambers via the sampling port and immediately replenished with equal volumes of fresh receptor solution. At the completion of each study, the diffusions cells were dismantled and the skin discs were rinsed and stored.

[2] = Solubility / precipitation of NSAIDs in the vehicles tested; conditions: vehicles screened
[3] = 10% Tolfenamic acid, vehicle KET67 (Eucalyptus oil, 70% 1,8-cineole), sample time 4 hrs
[4] = 10% Tolfenamic acid, vehicle KET67 (Eucalyptus oil, 70% 1,8-cineole), sample time 6 hrs
[5] = 10% Tolfenamic acid, vehicle KET67 (Eucalyptus oil, 70% 1,8-cineole), sample time 8 hrs
[6] = 10% Tolfenamic acid, vehicle KET68 (propylene glycol, 100% PPG), sample time 4 hrs
[7] = Tolfenamic acid 10% in vehicle KET51: Ethanol 70% EthOH, Propylene glycol 30% PPG, terpene None, 0.1M citrate, sample time 6 hrs
[8] = Tolfenamic acid 10% in vehicle KET51: Ethanol 70% EthOH, Propylene glycol 30% PPG, terpene None, 0.1M citrate, sample time 8 hrs
[9] = Tolfenamic acid 10% in vehicle KET52: Ethanol 70% EthOH, Propylene glycol 30% PPG, Menthol 50 mg/mL, 0.1M citrate, sample time 0.5 hrs
[10] = Tolfenamic acid 10% in vehicle KET52: Ethanol 70% EthOH, Propylene glycol 30% PPG, Menthol 50 mg/mL, 0.1M citrate, sample time 2 hrs
[11] = Tolfenamic acid 10% in vehicle KET52: Ethanol 70% EthOH, Propylene glycol 30% PPG, Menthol 50 mg/mL, 0.1M citrate, sample time 4 hrs
[12] = Tolfenamic acid 10% in vehicle KET52: Ethanol 70% EthOH, Propylene glycol 30% PPG, Menthol 50 mg/mL, 0.1M citrate, sample time 6 hrs
[13] = Tolfenamic acid 10% in vehicle KET52: Ethanol 70% EthOH, Propylene glycol 30% PPG, Menthol 50 mg/mL, 0.1M citrate, sample time 8 hrs
[14] = Tolfenamic acid 50%, vehicle KET39: Ethanol 50% EthOH, no co-solvent, Menthol 50 mg/mL, sample time 0.5 hrs, replicates 1-3
[15] = Tolfenamic acid 50%, vehicle KET39: Ethanol 50% EthOH, no co-solvent, Menthol 50 mg/mL, sample time 2 hrs, replicates 1-3
[16] = Tolfenamic acid 50%, vehicle KET39: Ethanol 50% EthOH, no co-solvent, Menthol 50 mg/mL, sample time 4 hrs, replicates 1-3
[17] = Vehicle KET52: 70% EthOH, 30% PPG (propylene glycol), Menthol 50 mg/mL, 0.1M citrate, drug conc 10%, sample time 0.5 hrs
[18] = Vehicle KET52: 70% EthOH, 30% PPG (propylene glycol), Menthol 50 mg/mL, 0.1M citrate, drug conc 10%, sample time 8 hrs
[19] = Vehicle KET53: 70% EthOH, 30% OA (oleyl alcohol), no terpene, 0.1M citrate, drug conc 10%, sample time 0.5 hrs
[20] = Vehicle KET53: 70% EthOH, 30% OA (oleyl alcohol), no terpene, 0.1M citrate, drug conc 10%, sample time 8 hrs
[21] = Vehicle KET54: 100% SRArl (Superfine Arlasolve), 0.1M citrate, drug conc 10%, sample time 6 hrs

- analysis conc ([1]; 10% Tolfenamic acid, vehicle KET66 (50% Ethanol, Eucalyptus oil 21% 1,8-cineole, 0.1M citrate), sample time 0.5 hrs): 0.004
- analysis conc ([1]; 10% Tolfenamic acid, vehicle KET67 (Eucalyptus oil, 70% 1,8-cineole), sample time 0.5 hrs): 0.005 and 0.003
- Concentration [1, 3]: 0.03 µg/mL and 0.015 µg/mL
- analysis conc [1, 3]: 0.01 and 0.005
- analysis conc [1, 4]: 0.006 and 0.005 and 0.008
- analysis conc [1, 5]: 0.006 and 0.005 and 0.004
- analysis conc ([1]; 10% Tolfenamic acid, vehicle KET68 (propylene glycol, 100% PPG), sample time 0.5 hrs): 0.002
- Concentration [1, 6]: 0.021 µg/mL and 0.012 µg/mL
- analysis conc [1, 6]: 0.007 and 0.004
- analysis conc ([1]; 10% Tolfenamic acid, vehicle KET68 (propylene glycol, 100% PPG), sample time 6 hrs): 0.002
- analysis conc ([1]; Tolfenamic acid 10% in vehicle KET51: Ethanol 70% EthOH, Propylene glycol 30% PPG, terpene None, 0.1M citrate, sample time 2 hrs): 0.011 and 0.01
- analysis conc ([1]; Tolfenamic acid 10% in vehicle KET51: Ethanol 70% EthOH, Propylene glycol 30% PPG, terpene None, 0.1M citrate, sample time 4 hrs): 0.004 and 0.003
- Concentration [1, 7]: 0.012 µg/mL and 0.015 µg/mL
- analysis conc [1, 7]: 0.004 and 0.005
- analysis conc [1, 8]: 0.006 and 0.005 and 0.004
- Concentration [1, 9]: 0.009 µg/mL
- analysis conc [1, 9]: 0.003
- Concentration [1, 10]: 0.012 µg/mL and 0.006 µg/mL
- analysis conc [1, 10]: 0.004 and 0.002
- Concentration [1, 11]: 0.009 µg/mL
- analysis conc [1, 11]: 0.003
- Concentration [1, 12]: 0.006 µg/mL
- analysis conc [1, 12]: 0.002
- Concentration [1, 13]: 0.012 µg/mL
- analysis conc [1, 13]: 0.004
- Concentration ([1]; Tolfenamic acid 50%, vehicle KET34: Ethanol 70% EthOH, no co-solvent, Menthol 50 mg/mL, sample time 0.5 hrs, replicates 1-3): 0 µg/mL
- Concentration ([1]; Tolfenamic acid 50%, vehicle KET34: Ethanol 70% EthOH, no co-solvent, Menthol 50 mg/mL, sample time 2 hrs, replicates 1-3): 0 µg/mL
- Concentration ([1]; Tolfenamic acid 50%, vehicle KET34: Ethanol 70% EthOH, no co-solvent, Menthol 50 mg/mL, sample time 4 hrs, replicates 1-3): 0 µg/mL
- Concentration ([1]; Tolfenamic acid 50%, vehicle KET34: Ethanol 70% EthOH, no co-solvent, Menthol 50 mg/mL, sample time 6 hrs, replicates 1-3): 0 µg/mL
- Concentration ([1]; Tolfenamic acid 50%, vehicle KET34: Ethanol 70% EthOH, no co-solvent, Menthol 50 mg/mL, sample time 8 hrs, replicates 1-3): 0 µg/mL
- Concentration [1, 14]: 0 μg/mL (2×) and 0.018 μg/mL
- analysis conc [1, 14]: 0.006
- Concentration [1, 15]: 0 μg/mL (2×) and 0.027 μg/mL
- analysis conc [1, 15]: 0.009
- Concentration [1, 16]: 0.012 μg/mL and 0 μg/mL (2×)
- analysis conc [1, 16]: 0.004
- Concentration ([1]; Tolfenamic acid 50%, vehicle KET39: Ethanol 50% EthOH, no co-solvent, Menthol 50 mg/mL, sample time 6 hrs, replicates 1-3): 0 µg/mL
- Concentration ([1]; Tolfenamic acid 50%, vehicle KET39: Ethanol 50% EthOH, no co-solvent, Menthol 50 mg/mL, sample time 8 hrs, replicates 1-3): 0 µg/mL
- Concentration [1, 17]: 0.006 µg/mL
- analysis conc [1, 17]: 0.002
- Concentration ([1]; Vehicle KET52: 70% EthOH, 30% PPG (propylene glycol), Menthol 50 mg/mL, 0.1M citrate, drug conc 10%, sample time 2 hrs): 0 µg/mL
- analysis conc ([1]; Vehicle KET52: 70% EthOH, 30% PPG (propylene glycol), Menthol 50 mg/mL, 0.1M citrate, drug conc 10%, sample time 4 hrs): 0.004
- analysis conc ([1]; Vehicle KET52: 70% EthOH, 30% PPG (propylene glycol), Menthol 50 mg/mL, 0.1M citrate, drug conc 10%, sample time 6 hrs): 0.003
- Concentration [1, 18]: 0.021 µg/mL and 0.012 µg/mL
- analysis conc [1, 18]: 0.007 and 0.004
- Concentration [1, 19]: 0.006 µg/mL
- analysis conc [1, 19]: 0.002
- analysis conc ([1]; Vehicle KET53: 70% EthOH, 30% OA (oleyl alcohol), no terpene, 0.1M citrate, drug conc 10%, sample time 2 hrs): 0.005
- analysis conc [1, 20]: 0.047 and 0.08 and 0.04
- analysis conc ([1]; Vehicle KET54: 100% SRArl (Superfine Arlasolve), 0.1M citrate, drug conc 10%, sample time 0.5 hrs): 0.002
- Concentration ([1]; Vehicle KET54: 100% SRArl (Superfine Arlasolve), 0.1M citrate, drug conc 10%, sample time 2 hrs): 0 µg/mL
- Concentration ([1]; Vehicle KET54: 100% SRArl (Superfine Arlasolve), 0.1M citrate, drug conc 10%, sample time 4 hrs): 0 µg/mL
- Concentration [1, 21]: 0.009 µg/mL and 0.006 µg/mL
- analysis conc [1, 21]: 0.003 and 0.002 and 0.004
SMILES: Cc1c(Cl)cccc1Nc1ccccc1C(=O)O [tolfenamic acid]
- Concentration [1, 4]: 0.018 µg/mL and 0.015 µg/mL and 0.024 µg/mL
- Concentration [1, 5]: 0.018 µg/mL and 0.015 µg/mL and 0.012 µg/mL
- Concentration [1, 8]: 0.018 µg/mL and 0.015 µg/mL and 0.012 µg/mL
- Concentration [1, 20]: 0.141 µg/mL and 0.24 µg/mL and 0.12 µg/mL
- solubility in vehicles [2]: not particularly soluble in most of the vehicles tested
- solubility in vehicles ([2]; listed as Tolfenamic acid): poorly soluble in almost every vehicle tested
